Laboratory results as given in US10745396B2, “Pesticidally active polycyclic derivatives with sulfur containing substituents” (Syngenta Participations AG, priority 2015, dated 2020).

Experiments:
Type in all cases: in vivo
[1] = system: Diabrotica balteata (Corn Root Worm); test: Diabrotica balteata, maize sprouts on agar, L2 larvae; conditions: 96 h, application rate of 200 ppm, 4 days after infestation, read-out: effect in at least one of the two categories (mortality or growth inhibition)
Method: Example B2: Diabrotica balteata (Corn Root Worm)
Maize sprouts placed onto an agar layer in 24-well microtiter plates were treated with aqueous test solutions prepared from 10′000 ppm DMSO stock solutions by spraying. After drying, the plates were infested with L2 larvae (6 to 10 per well). The samples were assessed for mortality and growth inhibition in comparison to untreated samples 4 days after infestation.

[2] = system: Euschistus heros (Neotropical Brown Stink Bug); test: Euschistus heros, soybean leaves on agar, N2 nymphs; conditions: 120 h, application rate of 200 ppm, 5 days after infestation, read-out: effect in at least one of the two categories (mortality or growth inhibition)
Method: Example B3: Euschistus heros (Neotropical Brown Stink Bug)
Soybean leaves on agar in 24-well microtiter plates were sprayed with aqueous test solutions prepared from 10′000 ppm DMSO stock solutions. After drying the leaves were infested with N2 nymphs. The samples were assessed for mortality and growth inhibition in comparison to untreated samples 5 days after infestation.

[3] = system: Plutella xylostella (Diamond Back Moth); test: Plutella xylostella, artificial diet, L2 larvae; conditions: 120 h, application rate of 200 ppm, 5 days after infestation, read-out: effect in at least one of the two categories (mortality or growth inhibition)
Method: Example B7: Plutella xylostella (Diamond Back Moth)
24-well microtiter plates with artificial diet were treated with aqueous test solutions prepared from 10′000 ppm DMSO stock solutions by pipetting. After drying, the plates were infested with L2 larvae (10 to 15 per well). The samples were assessed for mortality and growth inhibition in comparison to untreated samples 5 days after infestation.

[4] = system: Spodoptera littoralis (Egyptian Cotton Leaf Worm); test: Spodoptera littoralis, cotton leaf discs, L1 larvae; conditions: foliar, 72 h, application rate of 200 ppm, 3 days after infestation
Method: Example B8: Spodoptera littoralis (Egyptian Cotton Leaf Worm)
Cotton leaf discs were placed onto agar in 24-well microtiter plates and sprayed with aqueous test solutions prepared from 10′000 ppm DMSO stock solutions. After drying the leaf discs were infested with five L1 larvae. The samples were assessed for mortality, anti-feeding effect, and growth inhibition in comparison to untreated samples 3 days after infestation. Control of Spodoptera littoralis by a test sample is given when at least one of the categories mortality, anti-feedant effect, and growth inhibition is higher than the untreated sample.

[5] = system: Spodoptera littoralis (Egyptian Cotton Leaf Worm); test: Spodoptera littoralis, uptake by lettuce roots from agar, eggs; conditions: 144 h, test rate of 12.5 ppm, 6 days after infestation, read-out: effect in at least one of the three categories (mortality, anti-feeding, or growth inhibition)
Excerpt: Example B9: Spodoptera littoralis (Egyptian Cotton Leaf Worm)
Test compounds were applied by pipette from 10′000 ppm DMSO stock solutions into 24-well plates and mixed with agar. Lettuce seeds were placed onto the agar and the multi well plate was closed by another plate which contained also agar. After 7 days the compound was absorbed by the roots and the lettuce grew into the lid plate. The lettuce leaves were then cut off into the lid plate. Spodoptera eggs were pipetted through a plastic stencil onto a humid gel blotting paper and the lid plate was closed with it. The samples were assessed for mortality, anti-feedant effect and growth inhibition in comparison to untreated samples 6 days after infestation.

[6] = system: Myzus persicae (Green Peach Aphid); test: Myzus persicae feeding/contact activity, sunflower leaf discs; conditions: foliar, 144 h, application rate of 200 ppm, 6 days after infestation
Method: Example B5: Myzus persicae (Green Peach Aphid): Feeding/Contact Activity
Sunflower leaf discs were placed onto agar in a 24-well microtiter plate and sprayed with aqueous test solutions prepared from 10′000 ppm DMSO stock solutions. After drying, the leaf discs were infested with an aphid population of mixed ages. The samples were assessed for mortality 6 days after infestation.

CCn1c(C(F)(F)F)cc2nc(-c3nc(-c4ccc(C(F)(F)F)cc4)ccc3S(=O)(=O)CC)n(C)c2c1=O [Compound P2, 5-ethyl-2-[3-ethylsulfonyl-6-[4-(trifluoromethyl)phenyl]-2-pyridyl]-3-methyl-6-(trifluoromethyl)imidazo[4,5-c]pyridin-4-one]
≥ 80%: percent effect (mortality or growth inhibition) at 200 ppm [1] | percent effect (mortality or growth inhibition) at 200 ppm [2] | percent effect (mortality or growth inhibition) at 200 ppm [3] | percent control (mortality, anti-feedant effect or growth inhibition) at 200 ppm [4]

CCn1c(C(F)(F)F)cc2nc(-c3nc(-c4ccc(C#N)cc4)ccc3S(=O)(=O)CC)n(C)c2c1=O [Compound P15]
≥ 80%: percent effect (mortality or growth inhibition) at 200 ppm [1] | percent effect (mortality or growth inhibition) at 200 ppm [2] | percent effect (mortality or growth inhibition) at 200 ppm [3] | percent control (mortality, anti-feedant effect or growth inhibition) at 200 ppm [4] | percent effect (mortality, anti-feeding or growth inhibition) at 12.5 ppm [5]

CCS(=O)(=O)c1ccc(-n2cc(Cl)cn2)nc1-c1nc2cc(C(F)(F)F)n(C)c(=O)c2n1C [Compound P7, 2-[6-(4-chloropyrazol-1-yl)-3-ethylsulfonyl-2-pyridyl]-3,5-dimethyl-6-(trifluoromethyl)imidazo[4,5-c]pyridin-4-one]
≥ 80%: percent control (mortality, anti-feedant effect or growth inhibition) at 200 ppm [4]

CCn1c(C(F)(F)F)cc2nc(-c3nc(-c4ccc(C(F)(F)F)cc4F)ccc3S(=O)(=O)CC)n(C)c2c1=O [Compound P33]
≥ 80%: percent effect (mortality or growth inhibition) at 200 ppm [1] | percent effect (mortality or growth inhibition) at 200 ppm [3] | percent control (mortality, anti-feedant effect or growth inhibition) at 200 ppm [4]

CCn1c(C(F)(F)F)cc2nc(-c3nc(-c4ccc(F)c(F)c4)ccc3S(=O)(=O)CC)n(C)c2c1=O [Compound P34]
≥ 80%: percent effect (mortality or growth inhibition) at 200 ppm [1] | percent effect (mortality or growth inhibition) at 200 ppm [3] | percent control (mortality, anti-feedant effect or growth inhibition) at 200 ppm [4]

CCS(=O)(=O)c1ccc(-c2cc(F)cc(F)c2)nc1-c1nc2cc(C(F)(F)F)n(C3CC3)c(=O)c2n1C [Compound P41]
≥ 80%: percent effect (mortality or growth inhibition) at 200 ppm [1] | percent effect (mortality or growth inhibition) at 200 ppm [3] | percent control (mortality, anti-feedant effect or growth inhibition) at 200 ppm [4] | percent effect (mortality, anti-feeding or growth inhibition) at 12.5 ppm [5]

CCn1c(C(F)(F)F)cc2nc(-c3nc(-c4ccc(F)cc4)ccc3S(=O)(=O)CC)n(C)c2c1=O [Compound P26]
≥ 80%: percent effect (mortality or growth inhibition) at 200 ppm [3] | percent control (mortality, anti-feedant effect or growth inhibition) at 200 ppm [4]

CCn1c(C(F)(F)F)cc2nc(-c3nc(-c4cc(C(F)(F)F)cc(C(F)(F)F)c4)ccc3S(=O)(=O)CC)n(C)c2c1=O [Compound P36]
≥ 80%: percent effect (mortality or growth inhibition) at 200 ppm [1] | percent effect (mortality or growth inhibition) at 200 ppm [3] | percent control (mortality, anti-feedant effect or growth inhibition) at 200 ppm [4]

C/C=C/c1ccc(S(=O)(=O)CC)c(-c2nc3cc(C(F)(F)F)n(CC)c(=O)c3n2C)n1 [Compound P25]
≥ 80%: percent effect (mortality or growth inhibition) at 200 ppm [1] | mortality at 200 ppm [6] | percent control (mortality, anti-feedant effect or growth inhibition) at 200 ppm [4]

CCn1c(C(F)(F)F)cc2nc(-c3nc(C4CC4)ccc3S(=O)(=O)CC)n(C)c2c1=O [Compound P39]
≥ 80%: percent effect (mortality or growth inhibition) at 200 ppm [1] | percent effect (mortality or growth inhibition) at 200 ppm [2] | mortality at 200 ppm [6] | percent effect (mortality or growth inhibition) at 200 ppm [3] | percent control (mortality, anti-feedant effect or growth inhibition) at 200 ppm [4] | percent effect (mortality, anti-feeding or growth inhibition) at 12.5 ppm [5]

CCn1c(C(F)(F)F)cc2nc(-c3nc(-c4ccc(Cl)c(Cl)c4)ccc3S(=O)(=O)CC)n(C)c2c1=O [Compound P10]
≥ 80%: percent effect (mortality or growth inhibition) at 200 ppm [1] | percent effect (mortality or growth inhibition) at 200 ppm [3] | percent control (mortality, anti-feedant effect or growth inhibition) at 200 ppm [4]

CCn1c(C(F)(F)F)cc2nc(-c3nc(-c4cc(F)cc(Cl)c4)ccc3S(=O)(=O)CC)n(C)c2c1=O [Compound P19]
≥ 80%: percent effect (mortality or growth inhibition) at 200 ppm [1] | percent effect (mortality or growth inhibition) at 200 ppm [3] | percent control (mortality, anti-feedant effect or growth inhibition) at 200 ppm [4]

CCn1c(C(F)(F)F)cc2nc(-c3nc(-c4ccc(OC)c(F)c4)ccc3S(=O)(=O)CC)n(C)c2c1=O [Compound P23]
≥ 80%: percent effect (mortality or growth inhibition) at 200 ppm [1] | percent effect (mortality or growth inhibition) at 200 ppm [2] | mortality at 200 ppm [6] | percent effect (mortality or growth inhibition) at 200 ppm [3] | percent control (mortality, anti-feedant effect or growth inhibition) at 200 ppm [4]

CCn1c(C(F)(F)F)cc2nc(-c3nc(-c4ccc(Cl)c(C)c4)ccc3S(=O)(=O)CC)n(C)c2c1=O [Compound P24]
≥ 80%: percent effect (mortality or growth inhibition) at 200 ppm [1] | percent effect (mortality or growth inhibition) at 200 ppm [3] | percent control (mortality, anti-feedant effect or growth inhibition) at 200 ppm [4]

CCn1c(C(F)(F)F)cc2nc(-c3nc(-c4cc(F)c(F)c(F)c4)ccc3S(=O)(=O)CC)n(C)c2c1=O [Compound P35]
≥ 80%: percent effect (mortality or growth inhibition) at 200 ppm [1] | percent effect (mortality or growth inhibition) at 200 ppm [2] | percent effect (mortality or growth inhibition) at 200 ppm [3] | percent control (mortality, anti-feedant effect or growth inhibition) at 200 ppm [4]

CCn1c(C(F)(F)F)cc2nc(-c3nc(-c4cncs4)ccc3S(=O)(=O)CC)n(C)c2c1=O [Compound P31]
≥ 80%: percent effect (mortality or growth inhibition) at 200 ppm [1] | mortality at 200 ppm [6] | percent effect (mortality or growth inhibition) at 200 ppm [3] | percent control (mortality, anti-feedant effect or growth inhibition) at 200 ppm [4]

CCn1c(C(F)(F)F)cc2nc(-c3nc(-c4ccc(Cl)cc4Cl)ccc3S(=O)(=O)CC)n(C)c2c1=O [Compound P32]
≥ 80%: percent effect (mortality or growth inhibition) at 200 ppm [1] | percent effect (mortality or growth inhibition) at 200 ppm [3] | percent control (mortality, anti-feedant effect or growth inhibition) at 200 ppm [4]

CCn1c(C(F)(F)F)cc2nc(-c3nc(-c4cccnc4)ccc3S(=O)(=O)CC)n(C)c2c1=O [Compound P30]
≥ 80%: percent effect (mortality or growth inhibition) at 200 ppm [1] | percent effect (mortality or growth inhibition) at 200 ppm [2] | mortality at 200 ppm [6] | percent effect (mortality or growth inhibition) at 200 ppm [3] | percent control (mortality, anti-feedant effect or growth inhibition) at 200 ppm [4]

CCn1c(C(F)(F)F)cc2nc(-c3nc(-c4ccc(OC(F)(F)F)cc4)ccc3S(=O)(=O)CC)n(C)c2c1=O [Compound P22]
≥ 80%: percent effect (mortality or growth inhibition) at 200 ppm [1] | percent effect (mortality or growth inhibition) at 200 ppm [2] | percent effect (mortality or growth inhibition) at 200 ppm [3] | percent control (mortality, anti-feedant effect or growth inhibition) at 200 ppm [4] | percent effect (mortality, anti-feeding or growth inhibition) at 12.5 ppm [5]

CCn1c(C(F)(F)F)cc2nc(-c3nc(-c4ccsc4)ccc3S(=O)(=O)CC)n(C)c2c1=O [Compound P27]
≥ 80%: percent control (mortality, anti-feedant effect or growth inhibition) at 200 ppm [4]

CCn1c(C(F)(F)F)cc2nc(-c3nc(-c4cccc(Cl)c4)ccc3S(=O)(=O)CC)n(C)c2c1=O [Compound P17]
≥ 80%: percent effect (mortality or growth inhibition) at 200 ppm [1] | percent effect (mortality or growth inhibition) at 200 ppm [2] | mortality at 200 ppm [6] | percent effect (mortality or growth inhibition) at 200 ppm [3] | percent control (mortality, anti-feedant effect or growth inhibition) at 200 ppm [4]

CCS(=O)(=O)c1ccc(-n2cc(C(F)(F)F)cn2)nc1-c1nc2cc(C(F)(F)F)n(C)c(=O)c2n1C [Compound P9]
≥ 80%: percent effect (mortality or growth inhibition) at 200 ppm [1] | percent effect (mortality or growth inhibition) at 200 ppm [2] | percent effect (mortality or growth inhibition) at 200 ppm [3] | percent control (mortality, anti-feedant effect or growth inhibition) at 200 ppm [4]
